According to patent publication US10633630B2, “Acceleration of Mycobacterium growth” (ST GEORGE'S HOSPITAL MEDICAL SCHOOL, priority 2014, dated 2020):
Non-standard residues stand in square brackets, D forms with d. No end group written: not given here. βAla = NCCC(=O)O

Key:
[1] = Growth curves at various concentrations of peptide (Example 5); type: cell-based; conditions: for doubling time relative to the control / lag phase relative to the control without supplement: above the optimum concentration; for effects on the rate of division: below the optimum concentration; for optimum concentration of supplement: concentrations up to 80 μg/ml tested
Protocol: Part (A) presents results for the TiKa 14D peptide and part (B) presents results for the TiKa 102 peptide.
TiKa 14D and TiKa 102 were tested to identify the optimum concentration of supplement. Results are presented in FIGS. 5A and B for concentrations up to 80 μg/ml. […] Below the optimum concentration, the lag phase was either not affected (10 μg/ml of TiKa 14D) or was inhibited relative to the control (slightly for TiKa 14D at 5 μg/ml and for TiKa 102 at 20 μg/ml).

[2] = test system: Mycobacterium avium subspecies paratuberculosis (MAP); assay: Screen of TiKa peptide supplements for growth effects on MAP cultures (Example 1); type: cell-based; conditions: supplemented at 20 mg/ml (final); over a 20 day period; vs identical inocula with no added supplement
Protocol: FX1=reduction in lag phase, FX2=increase in division rate.
The lag phase and division rate can be determined using routine methods in the art. Typically, growth and expansion of cells of a bacterial culture is determined by monitoring the optical density (OD) of the culture (e.g. the OD600 or the OD800 as illustrated in the Examples section below). The lag phase and the division rate can be determined from plots of the OD over time.
Using Mycobacterium avium subspecies paratuberculosis (MAP) as a target organism a bank of 109 short L enantiomer peptides and one D enantiomer peptide (TiKa 14D) were screened for the ability to supplement defined media (see below) to produce growth effects that produce biomass more rapidly than identical inocula of MAP with no added supplement.
The effects can be defined as: • A significant decrease in lag time (i.e the time it takes to recover from subculture and begin growing exponentially). With standard low inoculum this is at least 5 days but there is evidence that this phase can also be greatly extended in low inocula (see FIGS. 3 and 4). • An increase in division rate.

[3] = test system: Mycobacterium avium subspecies paratuberculosis; type: cell-based; conditions: TiKa 14D 20 μg/ml
[4] = test system: cultures with different starting OD600 values; assay: Effects of TiKa 14D on cultures with different starting OD600 values (Example 3); type: cell-based; conditions: 20 μg/ml
Protocol: The effects of TiKa 14D on cultures with different starting OD600 values were tested. The TiKa 14D was present at a concentration of 20 μg/ml.
As shown in this Figure, at a starting OD600 of 0.2 TiKa 14D reduced the time to reach an OD600 of 0.6 by 7 days relative to a control without the supplement. At a starting OD600 of approximately 0.4, TiKa 14D reduced the time to reach an OD600 of 0.6 by 2 days relative to the control without the supplement.

MTB = assay: Time to positivity in BacTAlert liquid media system (Example 4); type: cell-based
[5] = test system: Mycobacterium tuberculosis

Substance | doubling time relative to the control [1] | lag phase relative to the control without supplement [1] | effects on the rate of division [1] | optimum concentration of supplement [1] [µg/mL] | effect on MAP test culture (decrease in lag time, increase in division rate) [2] | also measured
RRWRIVVIRVRR-BB-K(biotin) [TiKa 102] | still also reduced | still improved | decreased proportionally | 40 | positive effects | lag phase relative to the control ([1]; below the optimum concentration: 20 μg/ml): inhibited
RRWRIVVIRVRR [TiKa 69] | – | – | – | – | positive effects | –
RRWRIVVIRVRR-bA-bA-C (RRWRIVVIRVRR[βAla][βAla]C) [TiKa 86] | – | – | – | – | positive effects | –
WKIVFWWRR [TiKa 14D] | still also reduced | still improved | decreased proportionally | 20 | positive effects | effect on growth curve [3]: positive effects; reduction of the time to reach an OD600 of 0.6 relative to a control without the supplement ([4]; starting OD600 of 0.2): 7 days; reduction of the time to reach an OD600 of 0.6 relative to a control without the supplement ([4]; starting OD600 of approximately 0.4): 2 days; lag phase relative to the control ([1]; below the optimum concentration: 5 μg/ml): inhibited; lag phase relative to the control ([1]; below the optimum concentration: 10 μg/ml): not affected; Time to Positivity (TTP) compared to control media (MTB): decreased; effect on growth curve [5]: positive effects
RLARIVVIRVAR-BB-K(biotin) [TiKa 103] | – | – | – | – | positive effects | –
